Reference: US20130345215A1, “PYRAZOLOPYRIMIDONE AND PYRAZOLOPYRIDONE INHIBITORS OF TANKYRASE” (Genentech, Inc., priority 2012, published 2013)
Where two headings read alike, the source gives them in different places.

Legend:
Tankyrase 1 (TNKS1) = biological target: T1, Tankyrase 1 (TNKS1) (Homo sapiens, UniProt O95271); assay: μHTS-TNKS-IWR2 TR-FRET Binding Assay (Example 118), His6-TNKS1
T1 construct: His6-TNKS1, MW=28.2 KDa (construct: 1088-1327, 1266M)
Experimental: (§1) μHTS-TNKS-IWR2 TR-FRET Binding Assay (10 μL/well in BD1536-well plate, a single point)
(§2) Reagents and Stock Solutions
(§3) Biotin-4-((1S,2R,6S,7R)-3,5-Dioxo-4-aza-tricyclo[5.2.1.0*2,6]dec-8-en-4-yl)-N-(4-methyl-quinolin-8-yl)-benzamide (Biotin-IWR2): 10 mM Biotin-IWR2 stock in DMSO, stored at −20° C.
(XAV939) in DMSO, stored at −20° C.
(§4) Assay buffer 1a (AB1a) for TNKS dilution: 50 mM Tris, pH 7.4, 100 mM sodium chloride solution, 1 mM magnesium chloride solution, 1 mM DL-dithiothreitol solution, 0.2 mg/mL bovine serum albumin solution, 0.025% NP-40.
(§5) Assay buffer 1b (AB1b) for Biotin-IWR2 dilution: 50 mM Tris, pH 7.4, 100 mM sodium chloride solution, 1 mM magnesium chloride solution, 1 mM DL-dithiothreitol solution, 0.2 mg/mL bovine serum albumin solution, 0.05% NP-40
(§6) Assay buffer 1c (AB1c) for compound dilution: 50 mM Tris, pH 7.4, 100 mM sodium chloride solution, 1 mM magnesium chloride solution, 1 mM DL-dithiothreitol solution, 0.2 mg/mL bovine serum albumin solution
(§7) Assay buffer 2 (AB2) for Eu/APC: 50 mM Tris, pH 7.4, 100 mM sodium chloride solution, 1 mM magnesium chloride solution, 0.2 mg/mL bovine serum albumin solution
(§8) Reagent Stock Solution Preparation
(§9) Prepare BLANK well stock solution: 5% DMSO/AB1b buffer
(§10) Prepare TNKS 1 stock solution (5× stock): 300 nM TNKS in AB1a buffer. (Alternatively, use TNKS2 or PARP1 stock solutions.)
Transfer 3 μL/well of above solution (solution 1,2,3) to an empty assay plate (BD1536-well plate) as follows: • TOTAL and cpd wells: Solution 1 (Biotin-IWR2): • BLANK wells: Solution 2 (No Biotin-IWR2): • POSITIVE CONTROL wells: Solution 3 (Biotin-IWR2+XAV939)
(§11) Transfer 3 μL/well of the above diluted compound solutions or compound dilution buffer to the above assay plate. Add 2 μL/well of 300 nM TNKS stock solution (4) to every well in the above assay plate. Centrifuge the assay plate at 2100 rpm for 2 min. Incubate the assay plate at 26° C. for 30 minutes. Add 2 μL/well 3.5 nMEu/50 nM APC solution (5) to every well in the above assay plate. Centrifuge the assay plate at 2100 rpm for 2 min. Incubate the assay plate at 26° C. for 60 min.

tankyrase 2 (TNKS2) = biological target: T2, tankyrase 2 (TNKS2) (Homo sapiens, UniProt Q9H2K2); assay: μHTS-TNKS-IWR2 TR-FRET Binding Assay (Example 118), His6-TNKS2 substituted; settings: procedure in Example 118 with His6-TNKS2
T2 construct: His6-tankyrase 2 (construct: 934-1166) (His6-TNKS2)
Experimental: as §1, §2
Tankyrase 1 (TNKS1): 184.3 μM=5.2 mg/mL His6-TNKS1, MW=28.2 KDa (construct: 1088-1327, 1266M) in 20 mM Tris pH 8, 150 mM NaCl, 10% glycerol, and 0.5 mM TCEP. Alternatively, His6-tankyrase 2 (construct: 934-1166) (His6-TNKS2) or His6-PARP1 (full length) can be substituted for His6-TNKS 1.
as §3
Positive control: 10 mM 2-(4-Trifluoromethyl-phenyl)-3,5,7,8-tetrahydro-thiopyrano[4,3-d]pyrimidin-4-one (XAV939) in DMSO, stored at −20° C.
APC-anti-His Ab: 8.50 μM SL-APC, 8.26 μM anti-6His antibody-SureLight APC (Columia Bioscience, Catalog Number D3-1711, Lot Number N01010-AAH04)
Assay plate: BD 1536-well, clear/black plate (Catalog Number 353255)
as §4, §5, §6, §7, §8
Prepare Biotinylated IWR2 stock solution (3.33× stock) for TOTL and compound wells: 200 nM Biotin-IWR2 in 5% DMSO/AB1b buffer
as §9
Prepare POSITIVE CONTROL well stock solution (3.33× stock): 200 nM XAV939 in 200 nM Biotin-IWR2/5% DMSO/AB1b buffer
as §10
Prepare Eu/APC stock solution (5× stock): 3.5 nM Eu-SA/50 nM APC-His6Ab in AB2 buffer.
Add 25 μL/well 1.5% DMSO/AB1c buffer in each compound well to the compound concentration at 74 μM in 8.8% DMSO/AB1c buffer or in the 2 μL DMSO CONTROL wells (BLANK, TOTAL and POSITIVE wells) in the compound plate. Transfer 3 μL/well of above solution (solution 1,2,3) to an empty assay plate (BD1536-well plate) as follows: • TOTAL and cpd wells: Solution 1 (Biotin-IWR2): • BLANK wells: Solution 2 (No Biotin-IWR2): • POSITIVE CONTROL wells: Solution 3 (Biotin-IWR2+XAV939)
as §11, with “60 min. Read the assay plate immediately at excitation wavelength of 330 nm and emission wavelength of […] in time resolved fluorescence mode.” for “60 min.”
XAV939 (+ve control): 60 nM at ˜70% Inhibition
General Library compounds: 22.23 μM in 4% DMSO

T2 sequence (Q9H2K2 934-1166): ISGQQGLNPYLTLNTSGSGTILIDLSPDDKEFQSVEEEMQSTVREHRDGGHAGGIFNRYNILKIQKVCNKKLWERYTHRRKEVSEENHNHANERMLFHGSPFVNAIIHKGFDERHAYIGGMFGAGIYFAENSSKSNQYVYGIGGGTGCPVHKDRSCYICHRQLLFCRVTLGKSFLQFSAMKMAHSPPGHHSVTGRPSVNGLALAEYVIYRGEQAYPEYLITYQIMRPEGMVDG
T1 sequence (O95271 1088-1327): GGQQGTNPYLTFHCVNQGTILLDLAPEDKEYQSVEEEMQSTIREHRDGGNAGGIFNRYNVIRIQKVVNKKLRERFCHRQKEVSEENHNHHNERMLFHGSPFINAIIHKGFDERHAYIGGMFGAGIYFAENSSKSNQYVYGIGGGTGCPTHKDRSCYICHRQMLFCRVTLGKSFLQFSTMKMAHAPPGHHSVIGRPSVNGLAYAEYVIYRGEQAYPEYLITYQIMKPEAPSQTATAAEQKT

Row | IC50 (Tankyrase 1 (TNKS1)) [nM] | IC50 (tankyrase 2 (TNKS2)) [nM] | Molecule | IC50 (Tankyrase 1 (TNKS1); Compounds I-1 to I-58, procedure in Example 118 (TR-FRET, Biotin-IWR2 60 nM, TNKS 60 nM), read-out: TNKS1 (IC50)) [nM]
1 | 44 | 45.1 | Cn1ncc2c(=O)[nH]c(N3CCN(c4ccc(F)cc4S(C)(=O)=O)CC3)cc21 [Compound I-25, 6-[4-(4-fluoro-2-methylsulfonyl-phenyl)piperazin-1-yl]-1-methyl-5H-pyrazolo[4 3-c]pyridin-4-one] | –
2 | 147 | 376 | O=c1[nH]c(N2CCN(c3ccccc3F)CC2)nc2[nH]ncc12 [Compound I-10, 6-[4-(2-fluorophenyl)piperazin-1-yl]-1 5-dihydropyrazolo[3 4-d]pyrimidin-4-one] | –
3 | 13 | 234 | COCCOc1ccc(N2CCN(c3nc4c(cnn4C)c(=O)[nH]3)CC2)c(F)c1 [Compound I-30, 6-[4-[2-fluoro-4-(2-methoxyethoxy)phenyl]piperazin-1-yl]-1-methyl-5H-pyrazolo[3 4-d]pyrimidin-4-one] | –
4 | 51 | 76.5 | Cn1ncc2c(=O)[nH]c(N3CCN(c4ccc(C#N)cc4F)CC3)nc21 [Compound I-28, 3-fluoro-4-[4-(1-methyl-4-oxo-5H-pyrazolo[3 4-d]pyrimidin-6-yl)piperazin-1-yl]benzonitrile] | –
5 | 66 | 68.3 | Cn1ncc2c(=O)[nH]c(N3CCC(c4ccc(C(F)(F)F)cc4)CC3)nc21 [Compound I-6, 1-methyl-6-[4-[4-(trifluoromethyl)phenyl]-1-piperidyl]-5H-pyrazolo[3 4-d]pyrimidin-4-one] | –
6 | 39 | 47.1 | Cn1ncc2c(=O)[nH]c(N3CCN(c4ccc(F)cc4F)CC3)nc21 [Compound I-14, 6-[4-(2 4-difluorophenyl)piperazin-1-yl]-1-methyl-5H-pyrazolo[3 4-d]pyrimidin-4-one] | –
7 | 29 | 30.4 | Cn1ncc2c(=O)[nH]c(N3CCN(c4ncccc4C(F)(F)F)CC3)cc21 [Compound I-26, 1-methyl-6-[4-[3-(trifluoromethyl)-2-pyridyl]piperazin-1-yl]-5H-pyrazolo[4 3-c]pyridin-4-one] | –
8 | 504 | 598 | Cn1ncc2c(=O)[nH]c(N3CCN(c4nccs4)CC3)nc21 [Compound I-38, 1-methyl-6-(4-thiazol-2-ylpiperazin-1-yl)-5H-pyrazolo[3 4-d]pyrimidin-4-one] | –
9 | 155 | 178 | Cn1ncc2c(=O)[nH]c(N3CCN(CC4CCCO4)CC3)nc21 (centres unmarked) [Compound I-32, 1-methyl-6-[4-(tetrahydrofuran-2-ylmethyl)piperazin-1-yl]-5H-pyrazolo[3 4-d]pyrimidin-4-one] | –
10 | 34 | 95.3 | Cn1ncc2c(=O)[nH]c(N3CCN(c4ccc(C(C)(C)O)cc4F)CC3)nc21 [Compound I-44, 6-[4-[2-fluoro-4-(1-hydroxy-1-methyl-ethyl)phenyl]piperazin-1-yl]-1-methyl-5H-pyrazolo[3 4-d]pyrimidin-4-one] | –
11 | 150 | 228 | Cn1ncc2c(=O)[nH]c(N3CCN(c4ncccc4C#N)CC3)nc21 [Compound I-18, 2-[4-(1-methyl-4-oxo-5H-pyrazolo[3 4-d]pyrimidin-6-yl)piperazin-1-yl]pyridine-3-carbonitrile] | –
12 | 103 | 97 | Cn1ncc2c(=O)[nH]c(N3CCN(c4ccccc4C#N)CC3)cc21 [Compound I-17, 2-[4-(1-methyl-4-oxo-5H-pyrazolo[4 3-c]pyridin-6-yl)piperazin-1-yl]benzonitrile] | –
13 | 34 | 49.2 | Cn1ncc2c(=O)[nH]c(N3CCN(c4ccc(S(N)(=O)=O)cc4F)CC3)nc21 [Compound I-48, 3-fluoro-4-[4-(1-methyl-4-oxo-5H-pyrazolo[3 4-d]pyrimidin-6-yl)piperazin-1-yl]benzenesulfonamide] | –
14 | 41 | 39.4 | Cn1ncc2c(=O)[nH]c(N3CCN(c4ccc(C(=O)O)cc4F)CC3)nc21 [Compound I-40, 3-fluoro-4-[4-(1-methyl-4-oxo-5H-pyrazolo[3 4-d]pyrimidin-6-yl)piperazin-1-yl]benzoic acid] | –
15 | 105 | 176 | O=c1[nH]c(N2CCN(c3ccccc3F)CC2)cc2[nH]ncc12 [Compound I-12, 6-[4-(2-fluorophenyl)piperazin-1-yl]-1 5-dihydropyrazolo[4 3-c]pyridin-4-one] | –
16 | 55 | 63.2 | Cn1ncc2c(=O)[nH]c(N3CCN(c4c(F)cc(C#N)cc4F)CC3)nc21 [Compound I-56, 3 5-difluoro-4-[4-(1-methyl-4-oxo-5H-pyrazolo[3 4-d]pyrimidin-6-yl)piperazin-1-yl]benzonitrile] | –
17 | 47 | 55.3 | COc1cccnc1N1CCN(c2nc3c(cnn3C)c(=O)[nH]2)CC1 [Compound I-43, 6-[4-(3-methoxy-2-pyridyl)piperazin-1-yl]-1-methyl-5H-pyrazolo[3 4-d]pyrimidin-4-one] | –
18 | 24 | 26.3 | Cn1ncc2c(=O)[nH]c(N3CCN(c4c(Cl)cccc4Cl)CC3)nc21 [Compound I-42, 6-[4-(2 6-dichlorophenyl)piperazin-1-yl]-1-methyl-5H-pyrazolo[3 4-d]pyrimidin-4-one] | –
19 | 66 | 56.4 | Cn1ncc2c(=O)[nH]c(N3CCN(c4cc(O)cc(F)c4F)CC3)nc21 [Compound I-57, 6-[4-(2 3-difluoro-5-hydroxy-phenyl)piperazin-1-yl]-1-methyl-5H-pyrazolo[3 4-d]pyrimidin-4-one] | –
20 | 47 | 54.5 | Cn1ncc2c(=O)[nH]c(N3CCC(C#N)(c4ccccn4)CC3)nc21 [Compound I-52, 1-(1-methyl-4-oxo-5H-pyrazolo[3 4-d]pyrimidin-6-yl)-4-(2-pyridyl)piperidine-4-carbonitrile] | –
21 | 21 | 25 | Cn1ncc2c(=O)[nH]c(N3CCN(c4c(F)cc(N)cc4F)CC3)nc21 [Compound I-54, 6-[4-(4-amino-2 6-difluoro-phenyl)piperazin-1-yl]-1-methyl-5H-pyrazolo[3 4-d]pyrimidin-4-one] | –

Row | Molecule | IC50 (Tankyrase 1 (TNKS1)) [nM] | IC50 (tankyrase 2 (TNKS2)) [nM] | IC50 (Tankyrase 1 (TNKS1); Compounds I-1 to I-58, procedure in Example 118 (TR-FRET, Biotin-IWR2 60 nM, TNKS 60 nM), read-out: TNKS1 (IC50)) [nM]
22 | 6-[4-(3 5-dichloro-4- pyridyl)piperazin-1-yl]-1- methyl-5H-pyrazolo[4 3- c]pyridin-4-one [Compound I-47] | – | 29.1 | 26
